Test results published in US20100222319A1, “NICOTINAMIDE DERIVATIVES, PREPARATION THEREOF AND THERAPEUTIC USE THEREOF” (SANOFI-AVENTIS, priority 2007, published 2010).

Assays:
HCT116 (ATCC-CCL247) = experiment: MTS cell proliferation and viability test on HCT116 tumour line; format: cell-based; conditions: Homo sapiens, HCT-116, incubating the test compound for 72 hours, read-out: IC50 HCT116 (concentration which results in 50% loss of cell proliferation and viability)
Method: (§1) The compounds described in Table I have formed the subject of pharmacological trials which make it possible to determine the anticancer activity. They were tested in vitro on the following tumour lines: HCT116 (ATCC-CCL247) and PC3 (ATCC-CRL1435). The cell proliferation and viability were determined in a test using 3-(4,5-dimethylthiazol-2-yl)-5-(3-carboxymethoxyphenyl)-2-(4-sulphophenyl)-2H-tetrazolium (MTS) according to Fujishita T. et al., Oncology, 2003, 64(4), 399-406. In this test, the mitochondrial capacity of the living cells to convert MTS to a coloured compound after incubating the test compound for 72 hours is measured. The concentration of compound which results in 50% loss of cell proliferation and viability is recorded as IC50.

PC3 (ATCC-CRL1435) = experiment: MTS cell proliferation and viability test on PC3 tumour line; format: cell-based; conditions: incubating the test compound for 72 hours, read-out: IC50 PC3 (concentration which results in 50% loss of cell proliferation and viability)
Method: as §1

Compound	melting point	IC50 (HCT116 (ATCC-CCL247))	IC50 (PC3 (ATCC-CRL1435))
CCNc1nc(-c2ccc(NC(=O)NCc3cccnc3)cc2)ccc1C(=O)NC [Compound 1, 2-Ethylamino-N-methyl-6-[4-(3-pyridin-3-ylmethyl-ureido)-phenyl]-nicotinamide]	260 to 263 °C		
CNC(=O)c1ccc(-c2ccc(NC(=O)NCc3cccnc3)cc2)nc1N [Compound 3, 2-Amino-N-methyl-6-[4-(3-pyridin-3-ylmethyl-ureido)-phenyl]-nicotinamide]	234 to 236 °C		
CCNc1nc(-c2ccc(NC(=O)NCc3cccnc3)cc2)ccc1C(=O)NCCN1CCNCC1 [Compound 5, 2-Ethylamino-N-(2-piperazin-1-yl-ethyl)-6-[4-(3-pyridin-3-ylmethyl-ureido)-phenyl]-nicotinamide]		1.8 nM	0.8 nM
CCNc1nc(-c2ccc(NC(=O)NCc3cccnc3)cc2)ccc1C(=O)NCCN(C(C)C)C(C)C [Compound 8, N-(2-Diisopropylamino-ethyl)-2-ethylamino-6-[4-(3-pyridin-3-ylmethyl-ureido)-phenyl]-nicotinamide]	160 to 162 °C		
CNC(=O)c1ccc(-c2ccc(NC(=O)NCc3cccnc3)cc2)nc1NCc1cccnc1 [Compound 12, N-Methyl-2-[(pyridin-3-ylmethyl)-amino]-6-[4-(3-pyridin-3-ylmethyl-ureido)-phenyl]-nicotinamide]		19 nM	113 nM
CCNc1nc(-c2ccc(NC(=O)NCc3cccnc3)cc2)ccc1C(=O)NCCN1CCCCC1 [Compound 13, 2-Ethylamino-N-(2-piperidin-1-yl-ethyl)-6-[4-(3-pyridin-3-ylmethyl-ureido)-phenyl]-nicotinamide]	164 to 165 °C	0.1 nM	0.2 nM
CNC(=O)c1ccc(-c2ccc(NC(=O)NCc3cccnc3)cc2)nc1NCc1ccncc1 [Compound 15, N-Methyl-2-[(pyridin-4-ylmethyl)-amino]-6-[4-(3-pyridin-3-ylmethyl-ureido)-phenyl]-nicotinamide]	218 to 219 °C		
CNC(=O)c1ccc(-c2ccc(NC(=O)NCc3cccnc3)cc2)nc1NCCN1CCCCC1 [Compound 17, N-Methyl-2-(2-piperidin-1-yl-ethylamino)-6-[4-(3-pyridin-3-ylmethyl-ureido)-phenyl]-nicotinamide]		294 nM	266 nM
CNC(=O)c1ccc(-c2ccc(NC(=O)NCc3cccnc3)cc2)nc1NCc1ccccc1 [Compound 19, 2-Benzylamino-N-methyl-6-[4-(3-pyridin-3-ylmethyl-ureido)-phenyl]-nicotinamide]		34 nM	28 nM
CCNc1nc(-c2ccc(NC(=O)NCc3ccc(N)nc3)cc2)ccc1C(=O)NC [Compound 21, 6-{-4-[3-(6-Amino-pyridin-3-ylmethyl)-ureido]-phenyl}-2-ethylamino-N-methyl-nicotinamide]	223 to 226 °C		
CNC(=O)c1ccc(-c2ccc(NC(=O)NCc3cccnc3)cc2)nc1Nc1ccccc1 [Compound 22, N-Methyl-2-phenylamino-6-[4-(3-pyridin-3-ylmethyl-ureido)-phenyl]-nicotinamide]	234 to 236 °C	0.1 nM	0.1 nM
CNC(=O)c1ccc(-c2ccc(NC(=O)NCc3cccnc3)cc2)nc1NC1CC1 [Compound 23, 2-Cyclopropylamino-N-methyl-6-[4-(3-pyridin-3-ylmethyl-ureido)-phenyl]-nicotinamide]		0.1 nM	0.1 nM
CCN(CC)c1nc(-c2ccc(NC(=O)NCc3cccnc3)cc2)ccc1C(=O)NC [Compound 25, 2-Diethylamino-N-methyl-6-[4-(3-pyridin-3-ylmethyl-ureido)-phenyl]-nicotinamide]		2.2 nM	1.7 nM
CCNc1nc(-c2ccc(NC(=O)NCc3cccnc3)cc2)ccc1C(=O)NCCO [Compound 26, 2-Ethylamino-N-(2-hydroxy-ethyl)-6-[4-(3-pyridin-3-ylmethyl-ureido)-phenyl]-nicotinamide]		6.3 nM	4.4 nM

The next lines start with the values.

melting point	IC50 (HCT116 (ATCC-CCL247))	IC50 (PC3 (ATCC-CRL1435))	Compound
234 to 235 °C			CCNc1nc(-c2ccc(NC(=O)OCc3cccnc3)cc2)ccc1C(=O)NC [Compound 29, [4-(6-Ethylamino-5-methylcarbamoyl-pyridin-2-yl)-phenyl]-carbamic acid pyridin-3-ylmethyl ester]
	0.37 nM	0.3 nM	O=C(NCc1cccnc1)Nc1ccc(-c2ccc(C(=O)NCCN3CCCC3)c(Nc3ccccc3)n2)cc1 [Compound 33, 2-Phenylamino-6-[4-(3-pyridin-3-ylmethyl-ureido)-phenyl]-N-(2-pyrrolidin-1-yl-ethyl)-nicotinamide]
	11 nM	10 nM	CCNc1nc(-c2ccc(NC(=O)NCc3cccnc3)cc2)ncc1C(=O)NC [Compound 47, 4-Ethylamino-2-[4-(3-pyridin-3-ylmethyl-ureido)-phenyl]-pyrimidine-5-carboxylic acid methylamide]
	331 nM	316 nM	CNC(=O)c1ccc(-c2ccc(NC(=O)NCc3cccnc3)cc2)nc1N1CCCC1 [Compound 49, N-Methyl-6-[4-(3-pyridin-3-ylmethyl-ureido)-phenyl]-2-pyrrolidin-1-yl-nicotinamide]
	77 nM	78 nM	CNC(=O)c1ccc(-c2ccc(NC(=O)NCc3cccnc3)cc2)nc1NCCOC [Compound 51, 2-(2-Methoxy-ethylamino)-N-methyl-6-[4-(3-pyridin-3-ylmethyl-ureido)-phenyl]-nicotinamide]
	35 nM	45 nM	CCNc1cc(-c2ccc(NC(=O)NCc3cccnc3)cc2)ncc1C(=O)NC [Compound 55, 4-Ethylamino-N-methyl-6-[4-(3-pyridin-3-ylmethyl-ureido)-phenyl]-nicotinamide]
	2.5 nM	1.2 nM	CCNc1cc(-c2ccc(NC(=O)NCc3cccnc3)cc2)ccc1C(=O)NC [Compound 62, 3-Ethylamino-4′-(3-pyridin-3-ylmethyl-ureido)-biphenyl-4-carboxylic acid methylamide]
	116 nM	21 nM	CCNc1nc(-c2ccc(NC(=O)/C=C/c3cccnc3)cc2)ccc1C(=O)NCCN(C(C)C)C(C)C [Compound 74, N-(2-Diisopropylamino-ethyl)-2-ethylamino-6-[4-((E)-3-pyridin-3-yl-acryloylamino)-phenyl]-nicotinamide]
	0.1 nM	0.1 nM	CCNc1nc(-c2ccc(NC(=O)NCc3ccc(N)nc3)cc2)ccc1C(=O)NCCN1CCCCC1 [Compound 81, 6-{-4-[3-(6-Amino-pyridin-3-ylmethyl)-ureido]-phenyl}-2-ethylamino-N-(2-piperidin-1-yl-ethyl)-nicotinamide]
	1.8 nM	3 nM	CCNc1nc(-c2ccc(NC(=O)NCc3ccc(N)nc3)cc2)ccc1C(=O)NCCN1CC[S+]([O-])CC1 [Compound 103, 6-{-4-[3-(6-Amino-pyridin-3-ylmethyl)-ureido]-phenyl}-2-ethylamino-N-[2-(1-oxo-1-thiomorpholin-4-yl)-ethyl]-nicotinamide]
	221 nM	105 nM	CCNc1nc(-c2ccc(NC(=O)NCc3ccc(NC(=O)C(C)C)nc3)cc2)ccc1C(=O)NCCN1CCCCC1 [Compound 107, 2-Ethylamino-6-{4-[3-(6-isobutyrylamino-pyridin-3-ylmethyl)-ureido]-phenyl}-N-(2-piperidin-1-yl-ethyl)-nicotinamide]
	271 nM	345 nM	CCNc1nc(-c2ccc(NC(=O)NCc3ccc(NC(C)C)nc3)cc2)ccc1C(=O)NCCN1CCCCC1 [Compound 108, 2-Ethylamino-6-{-4-[3-(6-isopropylamino-pyridin-3-ylmethyl)-ureido]-phenyl}-N-(2-piperidin-1-yl-ethyl)-nicotinamide]
	0.1 nM	0.1 nM	CCNc1nc(-c2ccc(NC(=O)NCc3ccc(N)nc3)cc2)ccc1C(=O)NCCN1C[C@@H](C)O[C@@H](C)C1 [Compound 114, 6-{-4-[3-(6-Amino-pyridin-3-ylmethyl)-ureido]-phenyl}-N-[2-(cis-2,6-dimethyl-morpholin-4-yl)-ethyl]-2-ethylamino-nicotinamide]
